Measured values from the supplement of paper PMC5579334.
± gives the standard deviation of the averaged measurements.

Assays:
[1] = test system: ST8814; test: % inhibition of CellTiter-Glo viability at highest tested concentration (72 h), relative to DMSO and benzethonium chloride controls; higher = more inhibition
Procedure, shortened: (§1)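 MPNST cell lines and primary human Schwann cells (750–1000 cells per well) went into 384-well plates preprinted with each compound at five concentrations in 10-fold steps. Plates were incubated 72 h at 37 °C, 5% CO2. Viability was read as CellTiter-Glo ATP luminescence, scaled between vehicle and positive-control wells, with duplicates averaged where present. Percent inhibition is at the top concentration; drug sensitivity score and relative IC50 (censored at top concentration) come from four-parameter logistic fits.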

[2] = test system: S1507-2; test: as above
Procedure, shortened: as §1

[3] = test system: S462; test: as above
Procedure, shortened: as §1

[4] = test system: HSC2 (primary human Schwann cells); test: as above
Procedure, shortened: as §1

[5] = test system: HSC1 (primary human Schwann cells); test: as above
Procedure, shortened: as §1

[6] = test system: STS26T; test: as above
Procedure, shortened: as §1

[7] = test system: ST8814; test: drug sensitivity score (DSS, CellTox-Green cytotoxicity, 72 h) (DSS (dimensionless)); higher = more cytotoxic; extreme values may be limits of the assay
Procedure, shortened: (§2)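 MPNST cell lines and primary human Schwann cells were incubated 72 h at 37 °C in 384-well plates holding five 10-fold compound dilutions. CellTox-Green was added before seeding at a final 1:1000 dilution and reported fluorescence from DNA released by disrupted cells. Signals were scaled to vehicle and positive-control wells, and cultures failing plate quality control were dropped. Drug sensitivity score and relative IC50 come from four-parameter logistic fits, with IC50 censored at the top concentration.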

[8] = test system: S1507-2; test: as above
Procedure, shortened: as §2

[9] = test system: HSC2 (primary human Schwann cells); test: as above
Procedure, shortened: as §2

[10] = test system: HSC1 (primary human Schwann cells); test: as above
Procedure, shortened: as §2

[11] = test system: STS26T; test: as above
Procedure, shortened: as §2

[12] = test system: ST8814; test: drug sensitivity score (DSS, CellTiter-Glo viability, 72 h) (DSS (dimensionless)); higher = more sensitive; extreme values may be limits of the assay
Procedure, shortened: as §1

[13] = test system: S1507-2; test: as above
Procedure, shortened: as §1

[14] = test system: S462; test: as above
Procedure, shortened: as §1

[15] = test system: HSC2 (primary human Schwann cells); test: as above
Procedure, shortened: as §1

[16] = test system: HSC1 (primary human Schwann cells); test: as above
Procedure, shortened: as §1

[17] = test system: STS26T; test: as above
Procedure, shortened: as §1

[18] = test system: YST-1; test: as above
Procedure, shortened: as §1

[19] = test system: HS-Sch-2; test: as above
Procedure, shortened: as §1

[20] = test system: HS-PSS; test: as above
Procedure, shortened: as §1

[21] = test system: HS-Sch-2; test: % inhibition of CellTiter-Glo viability at highest tested concentration (72 h), relative to DMSO and benzethonium chloride controls; higher = more inhibition
Procedure, shortened: as §1

[22] = test system: HS-PSS; test: as above
Procedure, shortened: as §1

[23] = test system: HS-PSS; test: drug sensitivity score (DSS, CellTox-Green cytotoxicity, 72 h) (DSS (dimensionless)); higher = more cytotoxic; extreme values may be limits of the assay
Procedure, shortened: as §2

Structure (SMILES) | % inhibition [1] | % inhibition [2] | % inhibition [3] | % inhibition [4] | % inhibition [5] | % inhibition [6] | drug sensitivity score [7] | drug sensitivity score [8] | drug sensitivity score [9] | drug sensitivity score [10] | drug sensitivity score [11] | drug sensitivity score [12] | drug sensitivity score [13] | drug sensitivity score [14] | drug sensitivity score [15] | drug sensitivity score [16] | drug sensitivity score [17] | drug sensitivity score [18] | drug sensitivity score [19] | drug sensitivity score [20] | % inhibition [21] | % inhibition [22] | drug sensitivity score [23]
CCNC(=O)c1noc(-c2cc(C(C)C)c(O)cc2O)c1-c1ccc(CN2CCOCC2)cc1 [NVP-AUY922] (max concentration tested 1000 nM) | 98.2% | 97.933 ± 0.086% | 98 ± 1.7% | 97.1% | 98.2% | 92.2% | 8.57 | 20.6 ± 3.5 | 20.4 | 19.6 | 11.4 | 19.4 | 20.5 ± 1.9 | 19.7 ± 3.3 | 22.6 | 21.6 | 18.3 |  |  |  |  |  | 
CCN(CC)CCCC(C)Nc1c2ccc(Cl)cc2nc2ccc(OC)cc12 (stereo not given) [Mepacrine aq] (max concentration tested 50000 nM) | 96.3% | 98.51 ± 0.17% | 95.06 ± 0.61% | 95% | 95.9% | 96.5% | 14.7 | 23.5 ± 4.6 | 19.6 | 20.7 | 15.8 | 20.5 | 19.92 ± 0.17 | 20.5 ± 1.6 | 18 | 18.6 | 18.9 |  |  |  |  |  | 
c1cc(CN2CCCNCCNCCCNCC2)ccc1CN1CCCNCCNCCCNCC1 [Plerixafor aq] (max concentration tested 10000 nM) | 4.25% | -14.1 ± 20% | -4.54 ± 3.1% | -6.48% | -10.1% | 3.99% | 0 | 5.26 ± 3 | 2.79 | 0 | 0.908 | 0 | 0 | 0 | 0 | 0 | 0 |  |  |  |  |  | 
CC1(C)CCC(CN2CCN(c3ccc(C(=O)NS(=O)(=O)c4ccc(NCC5CCOCC5)c([N+](=O)[O-])c4)c(Oc4cnc5[nH]ccc5c4)c3)CC2)=C(c2ccc(Cl)cc2)C1 [ABT-199] (max concentration tested 10000 nM) | 15.5% | 8.98 ± 1.1% | 7.02 ± 15% | 23.8% | 14.4% | 3.69% | 0.467 | 0.226 ± 0.32 | 0 | 0 | 0 | 0.111 | 0 | 0.138 ± 0.2 | 0.781 | 0.0759 | 0 |  |  |  |  |  | 
COc1ncc(-c2ccc3nccc(-c4ccnnc4)c3c2)cc1NS(=O)(=O)c1ccc(F)cc1F (max concentration tested 1000 nM) | 90% | 72.9 ± 5.3% | 75.23 ± 0.42% | 84.1% | 84.4% | 83.4% | 4 | 0.225 ± 0.23 | 0 | 0 | 0.0475 | 12.8 | 14 ± 0.98 | 10.1 ± 1.8 | 15.8 | 16.1 | 16.6 |  |  |  |  |  | 
Cc1c(CN2CCN(C(=O)[C@H](C)O)CC2)sc2c(N3CCOCC3)nc(-c3cnc(N)nc3)nc12 [GDC-0980] (max concentration tested 10000 nM) | 90% | 79.39 ± 0.55% | 76.6 ± 3.3% | 80.9% | 82.8% | 83.4% | 1.59 | 0.544 ± 0.76 | 0 | 0 | 0 | 9.92 | 12.2 ± 0.97 | 10.5 ± 0.55 | 12.5 | 11.8 | 12.5 |  |  |  |  |  | 
Cc1ccc(C(=O)Nc2ccc(CN3CCN(C)CC3)c(C(F)(F)F)c2)cc1C#Cc1cnc2cccnn12 [Ponatinib] (max concentration tested 1000 nM) |  |  |  |  |  |  |  |  |  |  |  | 8.31 | 6.1 ± 0.6 | 5.51 ± 0.34 | 6.49 | 6.62 | 3.91 | 4.76 | 5.57 | 2.2 |  |  | 
CS(=O)(=O)N1CCN(Cc2cc3nc(-c4cccc5[nH]ncc45)nc(N4CCOCC4)c3s2)CC1 [Pictilisib] (max concentration tested 10000 nM) |  |  | 68.53 ± 0.23% | 83.3% | 78.7% |  | 1.86 | 0.342 ± 0.48 | 0 | 0 | 0 | 9.07 | 13.4 ± 2.3 | 6.98 ± 0.18 | 7.76 | 7.89 | 13.3 | 14.6 | 4.35 | 5.78 | 51% | 52.1% | 0
CCC(C)(C)C(=O)O[C@H]1C[C@@H](C)C=C2C=C[C@H](C)[C@H](CC[C@@H]3C[C@@H](O)CC(=O)O3)[C@H]21 [Simvastatin] (max concentration tested 10000 nM) |  |  |  |  |  |  |  |  |  |  |  | 0.23 | 0.00035 ± 0.00049 | 2.409 ± 0.0062 | 9.94 | 8.22 | 0.448 | 0 | 0 | 3.55 |  |  | 
